Experiments:
[1] = system: anti-Borrelia IgM serum; test: Protection of anti-Borrelia IgM in spiked feces by various substances (ELISA), Example 4; settings: 33°C for 3 hours; for ELISA OD: concentrations of all cations 0.219M, dilution in ELISA 1/3000
Experimental: (§1) 25 µl of a high titred anti-Borrelia IgM serum obtained from a patient with acute Borreliosis was added to 5 tubes, each containing 50 mg of a fecal sample from a healthy volunteer. Following vortexing for 30 seconds, 500 µl of the normotonic (319 mOsm/L) solutions (i) 1 X PBS (7,7 mM Na2HPO4, 2,99 mM NaH2PO4, 145 mM NaCl), (ii) 64.5 mM zinc gluconate, (iii) 64,5 mM MgCl2, (iv) 64.5 mM magnesium gluconate or (v) 96.9 mM NaCl, the latter four all dissolved in 1/3 X PBS to obtain the same osmolarity as 1 X PBS, i.e. 319 mOsm/L was added to each of the five tubes. Following vortexing for 30 seconds, the tubes were subsequently incubated at 30°C for 5 hours. Thereafter, 250 µl of a protease inhibitor cocktail (see above) was added to each of the 5 tubes. Solid matter was suspended by vortexing for another 30 seconds followed by centrifugation at 13,000 x g for 10 min. The supernatants were stored at -70°C prior to examination or immediately tested in a commercially available anti-Borrelia IgM ELISA. For the purpose of comparison, 25 µl of the anti-Borrelia IgM serum was run in the immunoassay.
50 milligrams of feces and 25 µl of anti-Borrelia IgM serum were incubated at 33°C for 3 hours with each of the substances described in table 2. Following incubation, the fecal samples were processed and the extracts were obtained as described in example 3.

[2] = system: anti-Borrelia IgM antibodies; test: Protection of anti-Borrelia IgM in spiked feces by equimolar zinc compounds (ELISA), Example 5; settings: 37°C for 4 hours, zinc concentration = 0.219M; for ELISA OD: dilution in ELISA 1/1450
Experimental: 50 milligrams of feces and 25 µl of anti-Borrelia IgM serum was incubated at 37°C for 4 hours with equimolar concentrations of zinc gluconate, zinc chloride and zinc acetate (zinc concentration = 0.219M).

[3] = system: anti-CTB IgA
[4] = system: anti-Borrelia IgM antibodies; test: Inhibition of degradation of anti-Borrelia IgM in spiked fecal samples (anti-Borrelia IgM ELISA), Example 1; settings: for Initial ELISA, O.D.: feces plus anti-Borrelia IgM serum plus 10% zinc gluconate, 30°C for 5 hours
Experimental: In example numbers 1-5, fecal samples are spiked with a single analyte of interest, i.e. a predetermined amount of a high titered anti-Borrelia IgM serum is added to fecal samples in order to determine the extent to which the protective solution of the present invention prevents the degradation of the particular analyte added.
(§2) 50 µl of a high titer anti-Borrelia IgM serum obtained from a patient with acute Borreliosis was added to 3 tubes each containing 50 mg of a fecal sample from a healthy volunteer. Following vortexing for 30 seconds, the tubes were incubated at 30°C for 5 hours in the presence or absence of 150 µl of 10% zinc gluconate (Gluconal® ZN-G; Glucona B.V., Veendam, The Netherlands). Following incubation, 150 µl of a protease inhibitor cocktail (0.2 mM 4-{2-aminoethyl}benzenesulfonylfluoride [Calbiochem], 1 µg of aprotinin [Sigma] per ml, 10 µM leupeptin [Sigma], and 3.25 µM bestatin [Boehringer Mannheim, Indianapolis, USA]) was added. After vortexing, the tubes were centrifuged at 13,000 x g for 10 min. The supernatants were stored at -70°C or immediately tested in a commercially available anti-Borrelia IgM ELISA (IDELA™ Borrelia burgdorferi IgM, DAKO Diagnostics Ltd., Cambridgeshire, UK). For the purpose of comparison, 50 µl of anti-Borrelia IgM serum was run in the immunoassay.
The results are given in figure 4, Y-axis: ELISA results (O.D. value); X-axis: F+S; feces plus anti-Borrelia IgM serum incubated at 30°C or on ice for 5 hours, F+S+ZG; feces plus anti-Borrelia IgM serum plus zinc gluconate incubated at 30°C for 5 hours. […]

[5] = system: anti-Borrelia IgM; test: Effect of normotonic (319 mOsm/L) solutions on degradation of anti-Borrelia IgM in spiked feces, Example 3
Experimental: as §1, with “immunoassay. […]” for “immunoassay.”

[6] = system: anti-Borrelia IgM antibodies; test: Long term stability of IgM antibodies extracted from spiked fecal samples, re-analysis in anti-Borrelia IgM ELISA, Example 2; settings: extract stored at -70°C for 4 months, incubated 30°C for 5 hours
Experimental: as §2
The fecal extracts described in Example 1 were stored at -70°C for 4 months, and then re-analyzed in the anti-Borrelia IgM ELISA to check the long term stability of the antibodies stored in the presence or absence of 10% zinc gluconate.

`N=C(NCCCCCCNC(=N)NC(=N)Nc1ccc(Cl)cc1)NC(=N)Nc1ccc(Cl)cc1` [Chlorhexidine gluconate] was tested, and the “ELISA OD” value [1] was 0.003 OD.
`O=C([O-])[C@H](O)[C@@H](O)[C@H](O)[C@H](O)CO.[Na+]` [Sodium gluconate] was tested, and the “ELISA OD” value [1] was 0.087 OD.
With Copper acetate the “ELISA OD” value [1] was 0.042 OD.
With Copper sulphate the “ELISA OD” value [1] was 0.018 OD.
With Manganese chlonde the “ELISA OD” value [1] was 0.184 OD.
With Sodium chloride the “ELISA OD” value [1] was 0.043 OD.
Zinc acetate [reference compound] was tested, and the “ELISA OD” value [2] was 0.281 OD.
With Zinc chloride [reference compound] the “ELISA OD” value [2] was 0.011 OD.
For zinc gluconate, the “capacity of the IgA molecules to bind antigen (CTB)” value [3] was “preserved”, the “inhibition of degradation of IgA (figure 6)” value [3] was “significantly inhibit the degradation” and the “inhibition of degradation of anti-Borrelia IgM antibodies (figure 4)” value ([4]; 10% solution, fecal samples at 30°C for 5 hours) was “substantially inhibits the degradation”. For the same compound, the “Initial ELISA, O.D.” value ([4]; sample dilution 1/60) was 2.59 O.D, the “Initial ELISA, O.D.” value ([4]; sample dilution 1/180) was 2.57 O.D and the “Initial ELISA, O.D.” value ([4]; sample dilution 1/540) was 2.08 O.D. The “inhibition of degradation of anti-Borrelia IgM (Figure 5)” value ([5]; 64.5 mM in 1/3 X PBS, normotonic (319 mOsm/l), 30°C for 5 hours in feces) was “substantially inhibits the degradation”, the “efficiency in conferring protection among the examined compounds (Figure 5)” value ([5]; compared with normotonic PBS, MgCl2, magnesium gluconate, NaCl, 30°C for 5 hours) was “the most efficient” and the “protection of anti-Borrelia IgM antibodies from degradation (Table 3)” value [2] was “significantly protects”. The “ELISA OD” value [2] was 0.910 OD, the “ELISA O.D. after 4 months” value ([6]; sample dilution 1/60) was 2.48 O.D and the “ELISA O.D. after 4 months” value ([6]; sample dilution 1/180) was 2.40 O.D. The “ELISA O.D. after 4 months” value ([6]; sample dilution 1/540) was 1.75 O.D, the “protection among the substances tested (Table 2)” value ([1]; cations 0.219M) was “gives the best protection” and the “ELISA OD” value [1] was 0.360 OD.

Reference: EP1029246B1, “A METHOD AND DEVICE FOR PREVENTING IMMUNOGLOBULIN DEGRADATION IN EXTERNAL SECRETIONS” (priority 1997, dated 1999)
